From PMC6154605, “Multi-Anti-Parasitic Activity of Arylidene Ketones and Thiazolidene Hydrazines against Trypanosoma cruzi and Leishmania spp” (Molecules : A Journal of Synthetic Chemistry and Natural …, 2017)
Like-named read-outs stand apart in the source and are kept apart here.

Experiment: Drug bioconcentration in zebrafish embryos, UV-visible spectroscopy
Type: in vivo
Settings: whole embryo extract, 25 µM, incubation 25 µM, volume of measurement 100 µL, read-out: conc. in zebrafish embryos
Protocol: To get an approximation of the distribution and concentration of GAT1033 (the lipophilic compound) in the embryos, in the presence and absence of the chorion, we conducted a first analysis visualizing the embryos by laser scanning confocal microscopy. […] We then quantified the internal concentration of GAT1033 by UV-visible spectroscopy (Figure 9). To do this, we incubated embryos, with and without chorion, with a fixed dose of the compound for different extensions of time. After this, we performed a standard chemical extraction and quantified using spectrophotometry and checking the integrity of the molecules by thin layer chromatography.
Following the same conditions as those of the embryo toxicity test, five embryos were incubated per well in 6-well plates with 5 mL of 25 μM GAT1033. Embryos were incubated with and without chorion, starting at 6 hpf. The incubation medium containing the compound was exchanged daily. Every 24 h, 30 embryos having the same conditions were taken to extract the compound for quantitation. The embryos were washed three times with aquarium water and then centrifuged at low speed to pull out the total remaining solvent. The embryos were then resuspended in 1 mL of aquarium water and lysed by sonication (Omni Sonic Ruptor Omni Sonic Ruptor 400 Ultrasonic Homogenizer) on an ice bath with 4-times half-intensity-15-second pulses, resting 5 seconds. The extract was incubated with 1 mL of methanol/chloroform (2:1) for 5 min at 25 °C, followed by five chloroform extractions. The organic phase was dried over anhydrous sodium sulfate and evaporated in vacuo. The crude extract was dissolved in 100 µL acetonitrile (Merck, HPLC grade) for spectrophotometric measurements (Spectrophotometer double beam UV-Vis model Cary 60 Agilent Cary WinUV). The calibration curve and all of the experiments were performed with GAT1033 under the same conditions. For this, we used the Beer–Lambert–Bouguer Law (BLB law). Optical data for GAT1033 are: ε = (14.7 ± 0.5) cm^−1mM^−1, λmax = 379 nm, emission 530 nm.

C=CCn1c(-c2ccc(Cl)cc2)cs\c1=N/N=C/C=C/c1ccco1 [GAT1033]
concentration at 24 h (with chorion): 0.3 µM
concentration at 48 h (with chorion): 4.8 µM
concentration at 72 h (with chorion): 1.8 µM
concentration at 24 h (without chorion): 0.4 µM
concentration at 48 h (without chorion): 7.3 µM
concentration at 72 h (without chorion): 8.1 µM
